Results on one compound are retold here after PMC7433010, “Exploration of multi‐target effects of 3‐benzoyl‐5‐hydroxychromen‐2‐one in Alzheimer’s disease cell and mouse models” (Aging Cell, 2020).

In assay [1] the test system is AKT. Description: Western blot of AKT in ∆K280 TauRD‐DsRed SH‐SY5Y cells. It counts as cell-based, human. The method, then:
(§1) Total proteins from ∆K280 TauRD-DsRed SH-SY5Y cells were obtained using a RIPA buffer containing 50 mM Tris-HCl (pH8.0), 150 mM NaCl, 2 mM EDTA (pH8.0), 50 mM NaF, 0.1% SDS, 0.5% sodium deoxycholate, 1% NP40, and a protease inhibitor cocktail (Sigma-Aldrich). After sonication and sitting on ice for 20 min, the lysates were centrifuged at 14,000 × g for 30 min at 4°C. Protein concentrations were determined using a protein assay kit (Bio-Rad, Hercules, CA, USA), with albumin as a standard. Total proteins (20 µg) were electrophoresed on 10% or 12% SDS-polyacrylamide gel and transferred onto polyvinylidene difluoride (PVDF) membranes (Sigma-Aldrich) through reverse electrophoresis. […] Subsequently, immune complexes were detected using a horseradish peroxidase-conjugated goat anti-mouse or goat anti-rabbit IgG antibody (1:5000; GeneTex, Irvive, CA, USA) and a chemiluminescent substrate (Millipore).
Figure S4. ΔK280 TauRD-DsRed SH-SY5Y cells. […] On day 9, neurite outgrowth and caspase 3 activity were measured. In addition, expression of HSPB1, NRF2, and CREB pathways were assessed. (b) Relative AKT, pAKT, ERK, and pERK protein levels analyzed through immunoblotting. […]
(In western blotting, separated proteins are transferred to a membrane and probed.)

Assay [2] concerns BCL2. The assay can be described thus: Western blot of BCL2 in ∆K280 TauRD‐DsRed SH‐SY5Y cells. It is filed as cell-based, human. To be noted: 1 µM; induced untreated 83%, uninduced 100%. As to the method: as §1
Assay [3] concerns NRF2. Description: Western blot of NRF2 in ∆K280 TauRD‐DsRed SH‐SY5Y cells. It counts as cell-based, human. The following applies: 1 µM. The method, then:
(§2) To knock down CREB expression in ∆K280 TauRD-DsRed SH-SY5Y cells, lentiviral short hairpin RNA (shRNA) targeting CREB (TRCN0000226466), NRF2 (TRCN0000007558), and a negative control scrambled (TRC2.Void) were obtained from National RNAi Core Facility, IMB/GRC, Academia Sinica, Taipei, Taiwan. On day 1, cells were plated on 6-well plates (for protein analysis) or 24-well plates (for neurite outgrowth analysis) in the presence of retinoic acid as described. On the second day, the cells were infected with lentivirus (multiplicity of infection: 3) in medium with polybrene (8 µg/mL; Sigma-Aldrich). On day 3, the culture medium was changed and the cells were pretreated with LM-031 (1 µM) for 8 h, followed by induction of ∆K280 TauRD-DsRed expression. On day 9, the cells were collected for NRF2, CREB, pCREB, and cleaved CASP3 protein analysis or analyzed for neurite outgrowth as described.
as §1

Assay [4] deals with NQO1. The assay can be described thus: Western blot of NQO1 in ∆K280 TauRD‐DsRed SH‐SY5Y cells. It counts as cell-based, human. To be noted: 1 µM; induced untreated 79%, uninduced 100%. The method, then: as §1
Assay [5] deals with STZ‐induced hyperglycemic 3 × Tg‐AD mice. Description: Y‐maze task in STZ‐treated 3 × Tg‐AD mice. It counts as in vivo, mouse. The following applies: day 26; 40 mg/kg i.p.; STZ 53%, – STZ 63%. As to the method:
Mice harboring APPSwe, PS1M146V, and […] transgenes (3×Tg-AD) (Oddo et al., 2003) were purchased from the Jackson Laboratory (004807; Bar Harbor, ME, USA). Six-month-old male homozygous 3×Tg-AD mice were group housed at 20–25°C and 60% relative humidity under a daily 12-h light/12-h dark cycle, with assess to food and water ad libitum. Mice were randomly divided into 3 groups: – streptozocin (STZ), STZ, and STZ/LM-031 (n = 10 per group). STZ-induced hyperglycemia was used to accelerate the development of AD phenotype (Chen et al., 2014). […] Mouse body weight was measured and blood glucose level was measured on days 1, 8, 15, 22, and 29 using a blood glucose meter (Bioland Technology, Taipei, Taiwan). […]
A Y-maze composed of three equally spaced arms (40 cm long, 30 cm high, and 15 cm wide) was used to assess spontaneous alternation behavior. On day 26, each mouse was placed in one of the arm compartments and was allowed to move freely for 8 min; the number of entries and the sequence of arms entered were recorded. Spatial working memory was assessed through the spontaneous alternation performances of a Y-maze exploration as described (Maurice et al., 1994). […] The percent of spontaneous alternation behavior was calculated as the ratio of actual alternation to possible alternations (total arm entries – 2) × 100.

The test system of assay [6] is CREB. Description: Western blot of CREB in ∆K280 TauRD‐DsRed SH‐SY5Y cells. It counts as cell-based, human. To be noted: 1 µM; induced untreated 82%, uninduced 100%. The method, then: as §2, with “On day 3, the culture medium was changed and the cells were pretreated with LM-031 (1 µM) for 8 h, followed by induction of ∆K280 TauRD-DsRed expression.” left out
as §1, with “After sonication and sitting on ice for 20 min, the lysates were centrifuged at 14,000 × g for 30 min at 4°C.” left out, “standard.” for “standard. Total proteins (20 µg) were electrophoresed on 10% or 12% SDS-polyacrylamide gel and transferred onto polyvinylidene difluoride (PVDF) membranes (Sigma-Aldrich) through reverse electrophoresis.”

As to `O=C(c1ccccc1)c1cc2c(O)cccc2oc1=O` [LM‐031, 3‐benzoyl‐5‐hydroxychromen‐2‐one], the AKT level result in assay [1] is on record as “not notably affected”. Also, the BCL2 protein level in assay [2] came out at 106%. In addition, in assay [3] (induced untreated 75%, uninduced 100%), the NRF2 protein level came out at 109%. Further, the NRF2 level is listed as 98% in assay [3] (NRF2‐specific shRNA‐infected cells, untreated 74%) and 105% in assay [3] (scrambled shRNA‐infected cells, untreated 70%, uninduced 100%). The NQO1 protein level in assay [4] was determined as 94%. Further, the “Y‐maze alternation rate” value in assay [5] worked out at 72%. In assay [6], this compound displayed a CREB protein level of 122%.
